Bounds are passed on as bounds.

For 45 compounds, IC50 results are on record in patent US12492210B2, “Tricyclic compounds and their use” (HUTCHISON MEDIPHARMA LIMITED, priority 2019, dated 2025).

Experiment [1] relates to p-RSK (Thr359) in colo205 cells. The experiment is described as follows: p-RSK (Thr359) Acumen Assay in Colo205. The conditions noted are these: Homo sapiens, COLO 205, 1 hour compound incubation, read-out: Example 19 IC50. In kind it is cell-based. In short, it runs like this:
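Colo205 cells (4000/well, seeded overnight in 10% FBS) were exposed 1 hour at 37° C to compound added from a 3–0.001 μM dilution series in 5% DMSO. Cells were then fixed, permeabilised and immunostained for p-RSK Thr359, with PI counterstain. Acumen cytometry gave the percentage of positive cells, normalised to untreated wells and 3 uM GDC0994 wells, for the IC50 fit.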

For the next experiment, the target named is T1, MAPK1(ERK2) enzyme (Homo sapiens, UniProt P28482).
T1 construct: purchased Invitrogen PV3313
T1 sequence (P28482 whole entry): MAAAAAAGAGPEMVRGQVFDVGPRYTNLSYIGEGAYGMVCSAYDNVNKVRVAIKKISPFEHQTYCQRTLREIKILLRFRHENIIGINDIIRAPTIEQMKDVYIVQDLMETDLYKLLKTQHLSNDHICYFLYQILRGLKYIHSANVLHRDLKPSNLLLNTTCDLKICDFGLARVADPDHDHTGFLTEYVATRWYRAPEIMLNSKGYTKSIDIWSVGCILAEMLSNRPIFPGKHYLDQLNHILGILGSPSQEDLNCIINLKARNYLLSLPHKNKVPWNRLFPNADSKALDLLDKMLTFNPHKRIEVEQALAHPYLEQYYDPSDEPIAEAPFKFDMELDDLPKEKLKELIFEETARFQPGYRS
The experiment is described as follows: Z-Lyte Kinase Assay of ERK2. In kind it is biochemical. The following applies: read-out: Example 18 IC50. Summed up: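 FRET-based Z-LYTE assay using ERK2 kinase with Ser/Thr3 peptide; compound tested at 0.00046–1 μM final in 2% DMSO. Kinase reaction ran 1 h at 25-30° C, followed by 1 h development. The coumarin/fluorescein emission ratio (445/520 nm) gave % phosphorylation, and IC50 was fitted from inhibition relative to uninhibited control.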

As for `Cc1cnc(Nc2ccnn2C(C)C)nc1-c1cc2n(c1)C[C@H](C)n1c-2nnc1C(F)(F)c1ccccc1F` [Compound 292], the IC50 in experiment [1] was over 100 nM; at MAPK1(ERK2) enzyme, over 10 nM.

For `Cc1cnc(Nc2ccnn2C(F)F)nc1-c1cn2c(n1)-c1nnc(C(F)(F)c3ccccc3Cl)n1[C@@H](C)C2` [Compound 228], the results for the half-maximal inhibitory concentration (IC50) (in experiment [1]; at MAPK1(ERK2) enzyme) were at most 100 nM and at most 5 nM, respectively.

With `C[C@@H](c1ccccc1)c1nnc2n1CCCn1cc(-c3cc(Nc4ccnn4C)ncc3Cl)cc1-2` [Compound 15], the 50% inhibitory concentration (IC50) in experiment [1] was at most 100 nM; at MAPK1(ERK2) enzyme, 5 to 10 nM.

Consider `Cn1nccc1Nc1cc(-c2cc3n(c2)C[C@H](CF)n2c-3nnc2C(F)(F)c2ccccc2F)ccn1` [Compound 96], for which the results for the half-maximal inhibitory concentration (IC50) (in experiment [1]; at MAPK1(ERK2) enzyme) were at most 100 nM and 5 to 10 nM, respectively.

As for `Cc1c(-c2ccnc(Nc3ccnn3C)n2)cn2c1-c1nnc(Nc3ccccc3F)n1CCC2` [Compound 42], the IC50 in experiment [1] was over 100 nM; at MAPK1(ERK2) enzyme it was at most 5 nM.

Turning to `Cn1nccc1Nc1cc(-c2cc3n(c2)CCCn2c-3nnc2N2CCCc3ccccc32)c(Cl)cn1` [Compound 54], the IC50 was at most 100 nM in experiment [1] and 5 to 10 nM at MAPK1(ERK2) enzyme.

`Cn1nccc1Nc1cc(-c2cc3n(c2)C[C@H](CF)n2c-3nnc2C2(C(F)(F)F)CCC2)c(Cl)cn1` [Compound 121]: the figures for the IC50 (in experiment [1]; on MAPK1(ERK2) enzyme) were at most 100 nM and at most 5 nM, respectively.

As for `Cc1cnc(Nc2ccnn2C)nc1-c1cc2n(c1)C[C@H](C)n1c-2nnc1C(F)(F)c1ccccc1Cl` [Compound 125], the half-maximal inhibitory concentration (IC50) in experiment [1] was at most 100 nM; on MAPK1(ERK2) enzyme, 5 to 10 nM.

Take `Cn1nccc1Nc1cc(-c2cc3n(c2)C[C@H](C(F)F)n2c-3nnc2C(F)(F)n2cc(Cl)cn2)c(Cl)cn1` [Compound 209]: the figures for the 50% inhibitory concentration (IC50) (in experiment [1]; at MAPK1(ERK2) enzyme) were at most 100 nM and 5 to 10 nM, respectively.

Take `C[C@H]1Cn2cc(-c3nc(Nc4ccnn4C)ncc3F)cc2-c2nnc(C(F)(F)c3ccccc3Cl)n21` [Compound 143]: the IC50 in experiment [1] is at most 100 nM; at MAPK1(ERK2) enzyme it was over 10 nM.

For `COC1(c2nnc3n2[C@@H](CF)Cn2cc(-c4cc(Nc5ccnn5C)ncc4Cl)cc2-3)CCC1` [Compound 64], the IC50 in experiment [1] was over 100 nM; on MAPK1(ERK2) enzyme, at most 5 nM.

With `Cn1nccc1Nc1cc(-c2cc3n(c2)CC(F)(F)Cn2c-3nnc2C2(C#N)CCC2)c(Cl)cn1` [Compound 74], the concentration for half-maximal inhibition (IC50) was at most 100 nM in experiment [1] and at most 5 nM on MAPK1(ERK2) enzyme.

`Cn1nccc1Nc1cc(-c2cc3n(c2)CCCn2c(COCC(F)(F)F)nnc2-3)c(Cl)cn1` [Compound 25]: the IC50 in experiment [1] was over 100 nM; on MAPK1(ERK2) enzyme it was at most 5 nM.

For the compound `COCC1Cn2cc(-c3cc(Nc4ccnn4C)ncc3Cl)cc2-c2nnc(C3(C(F)(F)F)CCC3)n2C1` (stereo not drawn) [Compound 300, 5-chloro-4-(6-(methoxymethyl)-3-(1-(trifluoromethyl)cyclobutyl)-6,7-dihydro-5H-pyrrolo[1,2-a][1,2,4]triazolo[3,4-c][1,4]diazepin-10-yl)-N-(1-methyl-1H-pyrazol-5-yl)pyridin-2-amine], the concentration for half-maximal inhibition (IC50) in experiment [1] is at most 100 nM; on MAPK1(ERK2) enzyme, 5 to 10 nM.

With `Cn1nccc1Nc1cc(-c2cc3n(c2)C[C@H](CF)n2c(Cc4ccccc4F)nnc2-3)c(Cl)cn1` [Compound 92], the IC50 in experiment [1] was at most 100 nM; at MAPK1(ERK2) enzyme it was 5 to 10 nM.

With `Cc1cccnc1C(F)(F)c1nnc2n1[C@@H](CF)Cn1cc(-c3cc(Nc4ccnn4C)ncc3Cl)cc1-2` [Compound 175], the values for the IC50 (in experiment [1]; on MAPK1(ERK2) enzyme) were over 100 nM and at most 5 nM, respectively.

With `Cc1cnc(Nc2ccnn2C)nc1-c1cc2c3nnc(Cc4cccc(F)c4)n3ccn2c1` [Compound 283], the IC50 in experiment [1] was at most 100 nM; on MAPK1(ERK2) enzyme, at most 5 nM.

For the compound `Cn1nccc1Nc1cc(-c2cc3n(c2)CC(CO)Cn2c-3nnc2C2(C(F)(F)F)CCC2)c(Cl)cn1` (stereo not drawn) [Compound 299, (10-(5-chloro-2-((1-methyl-1H-pyrazol-5-yl)amino)pyridin-4-yl)-3-(1-(trifluoromethyl)cyclobutyl)-6,7-dihydro-5H-pyrrolo[1,2-a][1,2,4]triazolo[3,4-c][1,4]diazepin-6-yl)methanol], the IC50 is at most 100 nM in experiment [1] and at most 5 nM on MAPK1(ERK2) enzyme.

Turning to `Cn1nccc1Nc1cc(-c2cc3n(c2)C[C@H](C(F)F)n2c-3nnc2C(F)(F)c2ccccc2F)c(Cl)cn1` [Compound 208], the IC50 in experiment [1] was at most 100 nM; on MAPK1(ERK2) enzyme, over 10 nM.

With `Cc1cnc(Nc2ccnn2C)cc1-c1cc2n(c1)C[C@H](CF)n1c-2nnc1C(F)(F)n1ccccc1=O` [Compound 124], the half-maximal inhibitory concentration (IC50) in experiment [1] is at most 100 nM; at MAPK1(ERK2) enzyme, at most 5 nM.

With `Cn1nccc1Nc1cc(-c2cc3n(c2)C[C@H](CF)n2c-3nnc2C(F)(F)C(F)(F)F)c(Cl)cn1` [Compound 114], the IC50 in experiment [1] is over 100 nM; on MAPK1(ERK2) enzyme, at most 5 nM.

Regarding `Cn1nccc1Nc1cc(-c2cc3n(c2)CC(F)(F)Cn2c(Cn4ncc5ccccc54)nnc2-3)c(Cl)cn1` [Compound 199], the half-maximal inhibitory concentration (IC50) in experiment [1] was over 100 nM; on MAPK1(ERK2) enzyme, 5 to 10 nM.

Take `Cc1cnc(Nc2ccnn2C)cc1-c1cc2n(c1)CC1(CCC1)Cn1c-2nnc1C1(C(F)(F)F)CCC1` [Compound 129]: the IC50 in experiment [1] is at most 100 nM; on MAPK1(ERK2) enzyme it was at most 5 nM.

In the case of `Cn1nccc1Nc1nccc(-c2cc3c4nnc(Nc5ccccc5F)n4ccn3c2)n1` [Compound 41, N-(2-fluorophenyl)-9-(2-((1-methyl-1H-pyrazol-5-yl)amino)pyrimidin-4-yl)pyrrolo[1,2-a][1,2,4]triazolo[3,4-c]pyrazin-3-amine], the figures for the IC50 (in experiment [1]; at MAPK1(ERK2) enzyme) were over 100 nM and at most 5 nM, respectively.

Take `Cn1nccc1Nc1cc(-c2cc3n(c2)CC(C)(C)n2c-3nnc2C(F)(F)C(F)F)c(Cl)cn1` [Compound 249]: the IC50 in experiment [1] is at most 100 nM; at MAPK1(ERK2) enzyme it was 5 to 10 nM.

Regarding `Cc1cnc(Nc2ccnn2C)cc1-c1cc2n(c1)CC(C)(C)n1c-2nnc1C(F)(F)C(F)F` [Compound 234], the IC50 was over 100 nM in experiment [1] and at most 5 nM on MAPK1(ERK2) enzyme.

With `Cn1nccc1Nc1cc(-c2cc3n(c2)CC(F)(F)Cn2c-3nnc2C2(C(F)(F)F)CCC2)c(Cl)cn1` [Compound 171], the figures for the IC50 (in experiment [1]; on MAPK1(ERK2) enzyme) were at most 100 nM and over 10 nM, respectively.

As for `Cn1nccc1Nc1cc(-c2cc3n(c2)C[C@H](CF)n2c-3nnc2C(F)(F)C(F)F)c(Cl)cn1` [Compound 79], the IC50 was at most 100 nM in experiment [1] and at most 5 nM on MAPK1(ERK2) enzyme.

In the case of `Cc1cnc(Nc2ccnn2C)nc1-c1cc2n(c1)C[C@H](C)n1c-2nnc1C(F)(F)c1cccc(F)c1` [Compound 89], the half-maximal inhibitory concentration (IC50) in experiment [1] was at most 100 nM; at MAPK1(ERK2) enzyme, at most 5 nM.

On to `Cc1cnc(Nc2ccnn2C)nc1-c1cc2n(c1)CCn1c-2nnc1C1(C(F)(F)F)CCC1` [Compound 5], for which the values for the IC50 (in experiment [1]; at MAPK1(ERK2) enzyme) were over 100 nM and at most 5 nM, respectively.

Take `Cn1nccc1Nc1cc(-c2cc3n(c2)C[C@H](CF)n2c-3nnc2C(F)(F)c2ccon2)c(Cl)cn1` [Compound 112]: the half-inhibitory concentration (IC50) in experiment [1] was at most 100 nM; at MAPK1(ERK2) enzyme, 5 to 10 nM.

With `Cc1cnc(Nc2ccnn2C)nc1-c1cn2c(n1)-c1nnc(C(F)(F)c3ccccc3Cl)n1[C@@H](C)C2` [Compound 222], the 50% inhibitory concentration (IC50) was at most 100 nM in experiment [1] and at most 5 nM at MAPK1(ERK2) enzyme.

Take `Cn1nccc1Nc1cc(-c2cc3n(c2)CC(F)(F)Cn2c-3nnc2C2(C(F)F)COC2)c(Cl)cn1` [Compound 32]: the IC50 is at most 100 nM in experiment [1] and at most 5 nM on MAPK1(ERK2) enzyme.

As for `Cc1cnc(Nc2ccnn2C)nc1-c1cc2n(c1)C[C@H](C(F)F)n1c-2nnc1C(F)(F)c1ccccc1Cl` [Compound 205], the half-maximal inhibitory concentration (IC50) was at most 100 nM in experiment [1] and over 10 nM on MAPK1(ERK2) enzyme.

Take `Cc1c(-c2ccnc(Nc3ccnn3C)n2)cn2c1-c1nnc([C@H](C)Oc3ccccc3F)n1CCC2` [Compound 29]: the IC50 is at most 100 nM in experiment [1] and at most 5 nM at MAPK1(ERK2) enzyme.

For the compound `Cn1nccc1Nc1cc(-c2cc3n(c2)CCCn2c-3nnc2C2(C(F)(F)F)CCC2)c(C#N)cn1` [Compound 248], the IC50 in experiment [1] was over 100 nM; at MAPK1(ERK2) enzyme it was 5 to 10 nM.

`Cc1cc(Nc2ncc(C)c(-c3cc4n(c3)CCCn3c-4nnc3C3(C(F)(F)F)CCC3)n2)on1` [Compound 284]: the IC50 was over 100 nM in experiment [1] and at most 5 nM at MAPK1(ERK2) enzyme.

On to `Cc1cnc(Nc2ccnn2C(F)F)cc1-c1cc2n(c1)CCCn1c-2nnc1C1(C(F)(F)F)CCC1` [Compound 263], for which the IC50 in experiment [1] was at most 100 nM; at MAPK1(ERK2) enzyme, at most 5 nM.

On to `Cc1cnc(NC2CC(F)(F)C2)nc1-c1cc2n(c1)CCCn1c-2nnc1C1(C(F)(F)F)CCC1` [Compound 278], for which the IC50 in experiment [1] is over 100 nM; at MAPK1(ERK2) enzyme, at most 5 nM.

As for `Cc1cnc(Nc2ccnn2C)cc1-c1cc2n(c1)C[C@H](CF)n1c-2nnc1C(F)(F)c1c(F)cccc1F` [Compound 185], the IC50 was at most 100 nM in experiment [1] and over 10 nM on MAPK1(ERK2) enzyme.

For `Cc1cnc(Nc2c3c(nn2C)CCC3)nc1-c1cc2n(c1)C[C@H](CF)n1c(Cc3ccccc3F)nnc1-2` [Compound 150], the 50% inhibitory concentration (IC50) in experiment [1] is at most 100 nM; at MAPK1(ERK2) enzyme, at most 5 nM.

`Cn1nccc1Nc1cc(-c2cc3n(c2)CCCn2c-3nnc2C2(C#N)CCC2)c(Cl)cn1` [Compound 4]: the results for the IC50 (in experiment [1]; on MAPK1(ERK2) enzyme) were over 100 nM and at most 5 nM, respectively.

In the case of `Cc1nonc1C(F)(F)c1nnc2n1[C@@H](CF)Cn1cc(-c3cc(Nc4ccnn4C)ncc3Cl)cc1-2` [Compound 158], the IC50 in experiment [1] is at most 100 nM; on MAPK1(ERK2) enzyme, 5 to 10 nM.

In the case of `Cn1nccc1Nc1cc(-c2cc3n(c2)CCCn2c(COc4ccccc4F)nnc2-3)c(F)cn1` [Compound 244], the half-inhibitory concentration (IC50) was at most 100 nM in experiment [1] and 5 to 10 nM on MAPK1(ERK2) enzyme.

On to `Cn1nccc1Nc1cc(-c2cc3n(c2)CC2(CCC2)n2c(CCC(F)(F)F)nnc2-3)c(Cl)cn1` [Compound 253], for which the IC50 in experiment [1] is at most 100 nM; on MAPK1(ERK2) enzyme, at most 5 nM.
